“Also recorded” adds a separate entry of the source.
What was measured:
circadian period = conditions: 0.3% lithium; 25% D2O; cited from earlier work
organotypic SCN slices = experiment: Bioluminescence recording of circadian gene expression in organotypic SCN slices (mPer1::luc / PER2::LUC); assay type: cell-based, mice; conditions: for effect on circadian period / effect on circadian amplitude / gene expression: wild-type mPer1::luc / PER2::LUC SCN slices; for synchrony of SCN neurons (CCD imaging): 1.0 μM MDL for over 7 days, PER2::LUC slice; for rescue of circadian gene expression in MDL-treated SCN slices: PER2-LUC SCN slices pre-treated with MDL (2.5 μM), Epac agonist 100 μM
Protocol: (§1) Per1::luciferase and; Per2-luc transgenic mice were used. For organotypic slice culture, brains were removed from pups 5-10 days old and sectioned at 300 um with a McIlwain “Tissue Chopper.” Slices were sorted and trimmed to contain principally SCN tissue and placed onto a Millipore membrane insert (PICMORG) for culture at 37° C. in 5% CO2 as described previously (Gainer et al, 1998).
Recordings of luciferase activity from organotypic slices of SCN or peripheral tissues were made from 5-7 day old pups from PER2::LUC and, Per1::LUC mice using either photomultiplier assemblies for whole tissue emission or CCD camera for single SCN cell imaging (Hamamatsu Photonics Ltd, U.K.) as described May Wood et al 2006 Curr. Biol. Vol. 16 pp 599-605. cAMP-ELISA kit was purchased from R&D systems (Wiesbaden, Germany). NIH 3T3 cells were cultured as described (Kume et al 1999 Cell Vol 98 pp 193-205) and transfected using Genejuice (Novagen, San Diego, Calif.). […] Drugs were solubilized in medium or dimethylsulfoxide (DMSO) to make stock solutions 50-1000× the working solutions. [DMSO] was never greater than 0.4%. RNA-interference against Epac1 and Epac 2 used pre-validated sequences as instructed (Validated Stealth RNAi, Invitrogen, CA). Western Blots were performed as Reddy et al (2006 Curr. Biol. Vol 16 oo 1107-15). Behavioural rhythms, recorded by running wheel and passive infra-red movement detectors, were analysed in Clocklab (Actimetrics, Evanston Ill.). Central cannulae directed stereotaxically at the SCN and sub-cutaneous minipumps (Alzet® model 1002 pump and brain infusion kit II) for drug infusion were fitted as instructed (Durect Corp. Cupertino, Calif.).
(§2) Statistical analysis was performed using Prism GraphPad™ and Statview™. Periods were calculated over ≧3 days recoding For comparative purposes, transcriptional amplitude from PMT recordings was calculated as 100× (post-treatment emission peak-trough/pre-treatment peak-trough). In all cases error bars indicate SEM about the mean where n≧3.

Water solubility = assay type: physicochemical
peripheral tissues = experiment: Circadian recording in organotypic cultures of peripheral tissues from mPER2::LUC mice; assay type: cell-based
Protocol: (§3) Recordings of luciferase activity from organotypic slices of SCN or peripheral tissues were made from 5-7 day old pups from PER2::LUC and, Per1::LUC mice using either photomultiplier assemblies for whole tissue emission or CCD camera for single SCN cell imaging (Hamamatsu Photonics Ltd, U.K.) as described May Wood et al 2006 Curr. Biol. Vol. 16 pp 599-605. cAMP-ELISA kit was purchased from R&D systems (Wiesbaden, Germany). NIH 3T3 cells were cultured as described (Kume et al 1999 Cell Vol 98 pp 193-205) and transfected using Genejuice (Novagen, San Diego, Calif.). All drugs were purchased from Sigma-Aldrich (Poole, UK) except PKA/Epac-active cAMP analogues (Axxora; Grünberg; Germany) and KT5720 (Calbiochem, Nottingbam, UK). Drugs were solubilized in medium or dimethylsulfoxide (DMSO) to make stock solutions 50-1000× the working solutions. [DMSO] was never greater than 0.4%. […] Behavioural rhythms, recorded by running wheel and passive infra-red movement detectors, were analysed in Clocklab (Actimetrics, Evanston Ill.). […]
Statistical analysis was performed using Prism GraphPad™ and Statview™. Periods were calculated over ≧3 days recoding For comparative purposes, transcriptional amplitude from PMT recordings was calculated as 100× (post-treatment emission peak-trough/pre-treatment peak-trough). […]

NIH 3T3 cells [1] = experiment: Circadian gene expression in NIH 3T3 cells transfected with mBmal1::luc reporter; assay type: cell-based, mouse; conditions: for effect on circadian gene expression / output: mBmal1::luc reporter; for effect on circadian period: 3T3 fibroblasts
Text: Inhibition of the Gsα-binding site of AC caused a dose-dependent, reversible, dampening of circadian gene expression from Per1::luciferase organotypic SCN slice cultures, monitored by photomultiplier tubes. To determine the generality of this effect, we examined 3-T3 fibroblast cells. Abrogation of the endogenous oscillation of cAMP concentration stopped circadian gene expression as reported by Bmal1::luciferase reporter constructs P-site AC inhibition prolonged fibroblast period from ca. 21 hours to ca. 30 hours.
(§4) Recordings of luciferase activity from organotypic slices of SCN or peripheral tissues were made from 5-7 day old pups from PER2::LUC and, Per1::LUC mice using either photomultiplier assemblies for whole tissue emission or CCD camera for single SCN cell imaging (Hamamatsu Photonics Ltd, U.K.) as described May Wood et al 2006 Curr. Biol. Vol. 16 pp 599-605. cAMP-ELISA kit was purchased from R&D systems (Wiesbaden, Germany). NIH 3T3 cells were cultured as described (Kume et al 1999 Cell Vol 98 pp 193-205) and transfected using Genejuice (Novagen, San Diego, Calif.). All drugs were purchased from Sigma-Aldrich (Poole, UK) except PKA/Epac-active cAMP analogues (Axxora; Grünberg; Germany) and KT5720 (Calbiochem, Nottingbam, UK). Drugs were solubilized in medium or dimethylsulfoxide (DMSO) to make stock solutions 50-1000× the working solutions. [DMSO] was never greater than 0.4%. RNA-interference against Epac1 and Epac 2 used pre-validated sequences as instructed (Validated Stealth RNAi, Invitrogen, CA). Western Blots were performed as Reddy et al (2006 Curr. Biol. Vol 16 oo 1107-15). Behavioural rhythms, recorded by running wheel and passive infra-red movement detectors, were analysed in Clocklab (Actimetrics, Evanston Ill.). Central cannulae directed stereotaxically at the SCN and sub-cutaneous minipumps (Alzet® model 1002 pump and brain infusion kit II) for drug infusion were fitted as instructed (Durect Corp. Cupertino, Calif.).
as §2

JNK phosphorylation = experiment: Western blot of 3T3 cell extracts (JNK and CREB phosphorylation); assay type: cell-based, mouse; conditions: for JNK phosphorylation (pJNK): 3T3 cells, MDL 5.0 μm 40 hours, Epac agonist 100 μM, 2 hours; for CREB phosphorylation (pCREB): 3T3 cells given MDL, Epac agonist
Protocol: Epac had no effect on CREB phosphorylation.
as §4

cAMP levels = experiment: cAMP ELISA in synchronised NIH 3T3 fibroblast cultures; assay type: cell-based, mouse; conditions: for cAMP levels: MDL at highest doses used
Protocol: as §1, §4

adenylyl cyclase = conditions: irreversibly binds the Gsα site; cited from earlier work
NIH 3T3 cells [2] = experiment: Luciferase expression from control non-circadian promoter in NIH 3T3 cells; assay type: cell-based, mouse
circadian clock = conditions: administered in the evening; cited from earlier work
intact human neutrophils = conditions: Simchowitz et al 1983; cited from earlier work
Clock mutant SCN = experiment: Circadian period in Clock heterozygous and homozygous mutant SCN; assay type: cell-based, mice
Protocol: as §4, with “Central cannulae directed stereotaxically at the SCN and sub-cutaneous minipumps (Alzet® model 1002 pump and brain infusion kit II) for drug infusion were fitted as instructed (Durect Corp. Cupertino, Calif.).” left out

SCN = experiment: Free-running period of wheel-running behaviour, THFA infused to SCN by minipump and central cannula; assay type: in vivo; conditions: chronic central THFA vs vehicle; continuous dim red light; nine mice
Protocol: (a) Representative double-plotted, actograms of (left) vehicle- and (right) THFA-treated mice entrained to a photoschedule of 12 hours light (shaded) and 12 hours dark and fitted with osmotic mini-pump and central cannula directed at SCN (asterisk) Mice were then released into continuous dim-red light and free-running period determined Note longer period in THFA-treated mice.
as §3, with “solutions.” for “solutions. [DMSO] was never greater than 0.4%.”

Compound: [2H]O[2H] [D2O]
- lengthening of period (circadian period): approximately 5%

Compound: C[C@H]1O[C@@H](n2cnc3c(N)ncnc32)C[C@@H]1O [2′,5′-dideoxyadenosine, 2′,5′-Dideoxyadenosine]
- effect on circadian period (organotypic SCN slices): Reversible period lengthening; also recorded: Period was lengthened
- solubility (Water solubility; water, read-out: water soluble up to): ≥ 125 mM

Compound: Cl.c1ccc(C2CCCC2NC2=NCCCCCCCCCCC2)cc1 (stereo not drawn) [MDL-12,330A]
- effect on circadian output (peripheral tissues; organotypic kidney slices from mPER-2-LUC mice): Reversible, dose-dependent suppression of circadian output
- effect on circadian gene expression / output (NIH 3T3 cells [1]): dose dependent suppression of circadian gene expression
- effect on circadian gene expression / output (NIH 3T3 cells [1]; listed as MDL): Reversible, dose-dependent suppression of circadian output
- JNK phosphorylation (pJNK) (JNK phosphorylation): decline in JNK phosphorylation
- cAMP levels (cAMP levels): loss of measurable cAMP
- cAMP levels (cAMP levels; listed as MDL): suppressed cAMP levels to below the sensitivity of detection
- synchrony of SCN neurons (CCD imaging) (organotypic SCN slices): desynchronisation
- synchrony of SCN neurons (CCD imaging) (organotypic SCN slices; listed as MDL): became desynchronised
- effect on circadian amplitude / gene expression (organotypic SCN slices): reversible suppression of circadian protein expression; also recorded: reversible, dose-dependent dampening of circadian gene expression; also recorded: loss of circadian amplitude; also recorded: dampens transcriptional amplitude
- effect on circadian period (organotypic SCN slices): not affected
- effect on circadian amplitude / gene expression (organotypic SCN slices; listed as MDL): rapid, dose-dependent dampening of circadian cycling; also recorded: lost circadian amplitude
- IC50 (adenylyl cyclase): 250 µM
- luciferase expression from control, non-circadian promoter (NIH 3T3 cells [2]): no effect on luciferase expression

Compound: CC(C)Cn1c(=O)n(C)c(=O)c2[nH]cnc21 [IBMX]
- effect on circadian period (NIH 3T3 cells [1]): lengthened period in fibroblasts
- effect of THFA combined with IBMX on circadian period (NIH 3T3 cells [1]; THFA 1 mM plus IBMX 300 uM): did not enhance the effect of THFA

Compound: COc1ccc2[nH]cc(CCNC(C)=O)c2c1 [Melatonin]
- phase resetting effect on the circadian clock (circadian clock): approximately 30 minutes/day

Compound: CCCCCCOC(=O)[C@]1(O)C[C@@H]2O[C@@]1(C)n1c3ccccc3c3c4c(c5c6ccccc6n2c5c31)C(=O)NC4 [KT5720]
- effect on circadian amplitude / gene expression (organotypic SCN slices): no significant effect
- effect on circadian period (organotypic SCN slices): no significant effect

Compound: COC1C2OP(O)(=S)OCC2OC1n1c(Sc2ccc(Cl)cc2)nc2c(N)ncnc21 (stereo not drawn) [Sp-8-CPT-2′-O-Me-cAMPS]
- CREB phosphorylation (pCREB) (JNK phosphorylation; listed as Epac): no effect
- CREB phosphorylation (pCREB) (JNK phosphorylation; listed as Epac agonist): not pCREB
- JNK phosphorylation (pJNK) (JNK phosphorylation; listed as Epac): significant increase in JNK activation
- JNK phosphorylation (pJNK) (JNK phosphorylation; listed as Epac agonist): reverses the decline in JNK phosphorylation; also recorded: increased pJNK
- rescue of circadian gene expression in MDL-treated SCN slices (organotypic SCN slices): dramatically restored circadian output
- rescue of circadian gene expression in MDL-treated SCN slices (organotypic SCN slices; listed as Epac agonist): can be rescued; also recorded: acute activation and synchronisation of cellular circadian gene expression; also recorded: significantly increased luciferase activity; also recorded: transiently activated and re-synchronised circadian gene expression
- effect on circadian amplitude / gene expression (organotypic SCN slices): no significant effect
- effect on circadian period (organotypic SCN slices): no significant effect

Compound: 9-(Tetrahydro-2′-furyl)adenine [THFA]
- effect on circadian period (peripheral tissues; 2 mM THFA, all peripheral tissues tested): lengthens period; also recorded: dramatic increase in circadian period; also recorded: increases period in all tissues tested
- toxicity (intact human neutrophils): non-toxic
- probable maximum period increase (NIH 3T3 cells [1]; 1.2 mM THFA): approximately 9 hours
- circadian period (NIH 3T3 cells [1]; 1.2 mM THFA, untreated about 21 hours): about 30 hours
- effect on circadian period (NIH 3T3 cells [1]): Dose-dependent saturable period lengthening
- circadian period (NIH 3T3 cells [1]; fibroblasts transfected with mBmal::luc reporter, lengthening from ca. 21): ~31 h
- effect on circadian period (Clock mutant SCN): prolongs circadian period; also recorded: additive to that of the Clock mutation
- basal cAMP levels (cAMP levels; THFA): maintains basal levels; also recorded: without affecting its nadir; also recorded: did not alter basal levels of cAMP
- peak cAMP levels (cAMP levels; THFA): suppresses peak levels; also recorded: reduces the detectable, endogenous, biphasic rise in cAMP; also recorded: attenuated peak levels
- free-running circadian period (SCN): lengthens circadian period; also recorded: lengthening of free-running period; also recorded: significantly (p<0:01, t-test) lengthened
- saturating concentration of period lengthening (one-site inhibition model) (organotypic SCN slices; SCN slices): around 2 mM
- circadian period under combined AC and JNK inhibition (organotypic SCN slices; THFA together with JNK inhibition, SCN and fibroblast clockwork): around 36 hours
- period after removal of the drug (organotypic SCN slices; in vitro, after chronic incubation with THFA): approx. 24 hours
- circadian period (organotypic SCN slices; mPer1::luc and mPER2-LUC SCN slices, dose-dependent increase from ca. 24): ~31 h
- effect on circadian period (organotypic SCN slices): reversible increase of circadian period; also recorded: Extended circadian period; also recorded: Reversible period lengthening; also recorded: period effect; also recorded: rapidly reversible upon drug washout; also recorded: increased period in individual neurons
- water solubility (Water solubility): water-soluble; also recorded: most readily water soluble

Reference: patent publication US20090264383A1, “Inhibitor of Adenylyl Cyclase for Treating a Disorder of the Circadian Rhythm” (Medical Research Council, priority 2006, published 2009)
